Reference: patent US20230099367A1 (VERSITECH LIMITED, priority 2019, published 2023)
Ends that are not written are not given here.

Legend:
human SCTR = target: T1, human SCTR (Homo sapiens, UniProt P47872); assay: In vitro Lance cAMP assay in CHO cells overexpressing human SCTR; format: cell-based
T1 construct: expressed in transfected cells; host or cells: CHO cells
Description: As SCTR is known to have cAMP as the secondary messenger, therefore to study receptor activation, the concentration of cAMP is measured by the help of Lance cAMP assay using the assay kit from PerkinElmer, as per the standardized protocol in our lab. […] Additionally, the cells upon transfection were used for the extraction of total RNA (TriPure reagent, Invitrogen) to confirm the receptor's expression.
The selected compounds were procured from TargetMol and chemicalbook.com. […] The five compounds were then used for analyzing their dose-dependent response on the SCTR to verify their effect on the receptor.

SCTR = target: T2, SCTR (Mus musculus, UniProt Q5FWI2); assay: Ex vivo cAMP assay on isolated mouse tissues; set-up: species or system mice (C57); conditions: isolated C57 mouse tissues; secretin 1 μM, KSD179019 100 μM
T2 construct: low expression levels of the intrinsic receptor; from tissue; host or cells: duodenum, pancreas, cerebellum and kidney of C57 mice
T2 sequence (Q5FWI2 29-447): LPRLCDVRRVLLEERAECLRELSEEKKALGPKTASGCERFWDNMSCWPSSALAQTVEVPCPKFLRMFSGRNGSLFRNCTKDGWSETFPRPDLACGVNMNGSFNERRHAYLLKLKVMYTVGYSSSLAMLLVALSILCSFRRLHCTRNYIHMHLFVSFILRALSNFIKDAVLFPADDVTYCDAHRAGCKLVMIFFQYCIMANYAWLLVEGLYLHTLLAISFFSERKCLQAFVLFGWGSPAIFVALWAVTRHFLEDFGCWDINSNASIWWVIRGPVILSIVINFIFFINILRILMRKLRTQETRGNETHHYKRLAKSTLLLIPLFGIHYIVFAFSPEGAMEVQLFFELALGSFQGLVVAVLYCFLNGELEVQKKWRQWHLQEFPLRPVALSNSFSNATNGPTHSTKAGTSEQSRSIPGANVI
Text: Various tissues were collected from C57 mice and were washed three times with ice-cold HBSS (Invitrogen). Tissues were minced and weighed equally into four parts. […] After drug treatment, the tissues were homogenized for measuring the concentration of the cAMP by the Lance cAMP assay kit.

plasma vasopressin = assay: Plasma vasopressin after intracerebroventricular injection; format: in vivo, C57 mice; conditions: i.c.v.; secretin 500 ng/5 μl, KSD179019 260 ng/5 μl; 0-60 min; vs ACSF
Description: The complete protocol was performed as reported in our lab. Mice were implanted with the stainless-steel cannula with a projection to the lateral ventricular region (bregma: 0.5 mm, lateral: 1.0 mm and depth: 2.0 mm). The mice were allowed to recover for at least 5 days after the surgery. […] ACSF alone was used as a vehicle control. After drug treatment, blood was collected from the jugular vein at 0, 15, 30, 45 and 60 min. Plasma samples were collected from the whole blood by centrifugation at 4000×g for 10 min at 4° C. The samples were then used for the quantification of vasopressin by the help of ELISA using a commercial kit from (Phoenix Pharmaceuticals, Inc.) according to manufacturer instruction.

blood pressure [1] = assay: Blood pressure in spontaneously hypertensive rats (DSI telemetry); format: in vivo, spontaneously hypertensive rat (SHR)
Description: Anti-hypertensive action of KSD179019 was analyzed by continues monitoring of the blood pressure and heart rate on spontaneously hypertensive rat (SHR) by using DSI telemetric implantation. DSI device was surgically implanted using the methodology described before. […] We used conventional combination therapy i.e. Azilsartan (Az; 0.3 μg/g BW) and Chlorthalidone (CLT; 1 μg/g BW) for the comparison with […]. Az is an angiotensin II receptor antagonist and CLT is a diuretic compound. Both these compounds are commonly used in the treatment of hypertension either individually and in combination. The dosing of the combination of Az+CLT on SHR rats is used as documented in previous publications. For blood pressure monitoring, telemetric device by DSI was used, using the implantation methodology mentioned earlier.

[2] = test system: salmonella strains (TA98, TA100, TA1535 and TA1537) and combination of two E.coli strains (uvrA and pKM101); assay: Ames test for mutagenicity (OECD-471)
Description: In vitro and in vivo toxicity testing was performed. All these test were performed using the OECD guidelines. […] The MTT assay was performed on liver cells (HepG2 cell line) and kidney cells (HEK293 cell line) as they are the major organs effected by drug toxicity. […] Additionally, the potential carcinogenicity of this drug is tested according to OECD-471 (Ames test) using the commercially available kit from XENOMETRIX. The mutation effect of the drug was tested in salmonella strains (TA98, TA100, TA1535 and TA1537) and on the combination of two E.coli strains (uvrA and pKM101) (FIGS. 8a; 8b; 8c; 8d and 8e). […] Additionally, as the drug's secondary metabolite can also have carcinogenic effect, the Ames test was performed in presence of liver enzymes which can cause the formation of secondary metabolites (S9 liver extract) (FIGS. 9a; 9b; 9c; 9d and 9e). […] The animal testing was done under an animal license from the Laboratory Animal Unit (LAU) of the University of Hong Kong for testing at acute, sub-chronic and chronic levels of exposure. The study was done based on the OECD-423 guidelines. […] Major organs like brain, heart, liver, kidney, intestine, and colon were collected and analysed. […]
In vitro and in vivo toxicity testing was performed. […] Major organs like brain, heart, liver, kidney, intestine, and colon were collected and analysed. […]

[3] = Acute oral toxicity over 14 days (OECD-423), LD50 estimation; format: in vivo, C57BL/6J mice
Description: In vitro and in vivo toxicity testing was performed. All these test were performed using the OECD guidelines. […] The MTT assay was performed on liver cells (HepG2 cell line) and kidney cells (HEK293 cell line) as they are the major organs effected by drug toxicity. […] Additionally, the potential carcinogenicity of this drug is tested according to OECD-471 (Ames test) using the commercially available kit from XENOMETRIX. The mutation effect of the drug was tested in salmonella strains (TA98, TA100, TA1535 and TA1537) and on the combination of two E.coli strains (uvrA and pKM101) (FIGS. 8a; 8b; 8c; 8d and 8e). […] Additionally, as the drug's secondary metabolite can also have carcinogenic effect, the Ames test was performed in presence of liver enzymes which can cause the formation of secondary metabolites (S9 liver extract) (FIGS. 9a; 9b; 9c; 9d and 9e). […] The animal testing was done under an animal license from the Laboratory Animal Unit (LAU) of the University of Hong Kong for testing at acute, sub-chronic and chronic levels of exposure. The study was done based on the OECD-423 guidelines. […] The test was done on 6 animals in two batches in both males and females. The body weight change remained under 2 grams (FIG. 11) which is normal growth for 9 weeks old C57BL/6J (https://www.jax.org/jax-mice-and-services/strain-data-sheet-pages/body-weight-chart-000664#). […] The animals were subjected to histological analysis post sacrificing on day 14. Major organs like brain, heart, liver, kidney, intestine, and colon were collected and analysed. […] However, in order to determine a dose for sub-chronic and chronic studies, according to OECD recommendations, 3 animals were administered 5000 mg/kg BW of drug in a single administration. […] During the 14 day observation the animals remained healthy with no change in body weight and body temperature (FIG. 13).
In vitro and in vivo toxicity testing was performed. All tests were performed using the OECD guidelines. […] The MTT assay was performed on liver cells (HepG2 cell line) and kidney cells (HEK293 cell line) as they are the major organs effected by drug toxicity. […] Additionally, the potential carcinogenicity of this drug is tested according to OECD-471 (Ames test) using the commercially available kit from XENOMETRIX. The mutation effect of the drug was tested in salmonella strains (TA98, TA100, TA1535 and TA1537) and on the combination of two E.coli strains (uvrA and pKM101) (FIGS. 19a; 19b; 19c; 19d and 19e). […] Additionally, as the drug's secondary metabolite can also have carcinogenic effect, the Ames test was performed in presence of liver enzymes which can cause the formation of secondary metabolites (S9 liver extract) (FIGS. 20a; 20b; 20c; 20d and 20e). […] The animal testing was done under an animal license from the Laboratory Animal Unit (LAU) of the University of Hong Kong for testing at acute, sub-chronic and chronic levels of exposure. The study was done based on the OECD-423 guidelines. […] The test was done on 6 animals in two batches in both males and females. The body weight change remained under 2 grams (FIG. 21) which is normal growth for 9 weeks old C57BL/6J (https://www.jax.org/jax-mice-and-services/strain-data-sheet-pages/body-weight-chart-000664#). […] The animals were subjected to histological analysis post sacrificing on day 14. Major organs like brain, heart, liver, kidney, intestine, and colon were collected and analysed. […] However, in order to determine a dose for sub-chronic and chronic studies, according to OECD recommendations, 3 animals were administered 5000 mg/kg BW of drug in a single administration. […] During the 14 day observation the animals remained healthy with no change in body weight and body temperature (FIG. 23).

[4] = in vivo; cited from earlier work
blood pressure [5] = assay: Blood pressure after intraperitoneal secretin (DSI telemetry); format: in vivo, C57 mice; conditions: secretin 0.5 μg/g BW intraperitoneal; 5 min post administration
Description: The DSI telemetric device was implanted using the standardized protocol from our lab. Post recovery, blood pressure measurements, and drug administration were initiated. […] The heart rate and blood pressure were measured continually up to 150 min post-injection time.

[6] = 14 days after 2000 mg/kg BW oral

T1 sequence (P47872 23-440): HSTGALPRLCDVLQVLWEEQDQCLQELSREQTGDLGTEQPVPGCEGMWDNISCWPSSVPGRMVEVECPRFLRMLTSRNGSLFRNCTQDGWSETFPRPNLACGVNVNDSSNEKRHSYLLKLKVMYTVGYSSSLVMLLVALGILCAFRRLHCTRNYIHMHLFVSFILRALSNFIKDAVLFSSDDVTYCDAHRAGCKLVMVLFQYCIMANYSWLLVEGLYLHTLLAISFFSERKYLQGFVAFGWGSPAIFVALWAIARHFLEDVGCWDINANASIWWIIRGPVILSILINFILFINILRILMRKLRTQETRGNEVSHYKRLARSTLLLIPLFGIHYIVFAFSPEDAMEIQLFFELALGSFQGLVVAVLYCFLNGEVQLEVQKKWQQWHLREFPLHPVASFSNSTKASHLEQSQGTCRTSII

c1ccc2c(Oc3nc(Nc4ccc(N5CCOCC5)cc4)c4ncn(C5CCCCC5)c4n3)cccc2c1 [KSD179019, puromorphamine]
efficacy, % of maximal cAMP (of secretin) (human SCTR; SCT with KSD179019 (100 μM), maximal cAMP by SCT at 1 μM): 131.9%
cAMP concentration compared to basal level (agonist screening) (human SCTR; compound 100 μM, CHO cells overexpressing human SCTR): low but statistically significant increase in cAMP concentration
cAMP response together with secretin (antagonist screening) (human SCTR; compound (10 μM in FIG. 6 legend, 100 μM elsewhere in the source) with 1 μM secretin): potentiated the effect of secretin with significantly higher cAMP response
dose-dependent effect on secretin cAMP stimulation (human SCTR; different secretin concentrations plus KSD179019 100 μM): dose-dependent potentiation of secretin on cAMP stimulation
cAMP production from duodenum, cerebellum and pancreas (SCTR): able to stimulate cAMP production
plasma Vp (vasopressin) concentration (plasma vasopressin): significant increase in plasma Vp
hypotensive effect, times longer than combination therapy (Az and CLT) (blood pressure [1]; SHR rats): 3 times
hypotensive effect, times longer than secretin peptide (blood pressure [1]; SHR rats): 360 times
time that reduction in blood pressure lasted significantly (blood pressure [1]; SHR, 0.26 μg/g BW tail vein (FIG. 12C)): up to 20 hours
blood pressure reduction (blood pressure [1]; SHR, 0.26 μg/g BW tail vein injection, vs saline): consistent blood pressure reduction
drop in blood pressure at peak (blood pressure [1]; SHR, KSD179019, peaked at 40 hours): 10%
reduction in mean arterial blood pressure (blood pressure [1]; SHR, intravenous 0.26 μg/g BW, up to 60 hours post administration): approximately 10%
reduction of MABP (blood pressure [1]; SHR, intravenous, at 40 and 60 hours (FIG. 13B, N=2)): 10%
time window of statistically significant drops in diastolic and systolic blood pressure (blood pressure [1]; SHR, oral 30, 50 and 80 mg/kg BW (FIG. 17)): 20 to 50 h
time window of statistically significant drops in diastolic and systolic blood pressure (blood pressure [1]; SHR, tail-vein 0.26 μg/g body weight (FIG. 16)): 20 to 50 h
duration of hypotensive effect post administration (blood pressure [1]; SHR, until blood pressure recovered / effect still observed): up to 60 hours
carcinogenic potential of drug or metabolites, Ames test ([2]; in presence of S9 liver extract): no carcinogenic potential
mutation effect, Ames test ([2]; without S9 liver extract): No mutational effect
fatal or toxic effects ([3]; 5000 mg/kg BW single administration, 14 day observation): no fatal or toxic effects were observed
overall health of animals ([3]; 14 day after single oral dose of 2000 mg/kg BW): no effect on the overall health of animals
body temperature [3, 6]: remained constant
body weight change [3, 6]: under 2 grams
histological analysis of major organs (necrosis) ([3]; day 14, brain, heart, liver, kidney, intestine, colon, 2000 mg/kg BW): None of these organs were observed to have any signs of necrosis
LD50 ([3]; single oral administration, male and female mice, estimated, no fatality at 2000 mg/kg BW): 2000-5000 mg/kg BW

SecreFlo: synthetic secretin peptide analog (HSDGTFTSELSRLRDSARLQRLLQGLV; ends and bridges not checked; UniProt P63298 33-59, looked up)
half-life in circulation [4]: 20 min

ChiRhoStim: synthetic secretin peptide analog
half-life in circulation [4]: 45 min

CC(C)C[C@H](NC(=O)CNC(=O)[C@H](CCC(N)=O)NC(=O)[C@H](CC(C)C)NC(=O)[C@H](CC(C)C)NC(=O)[C@H](CCCNC(=N)N)NC(=O)[C@H](CCC(N)=O)NC(=O)[C@H](CC(C)C)NC(=O)[C@H](CCCNC(=N)N)NC(=O)[C@H](C)NC(=O)CNC(=O)[C@H](CCC(=O)O)NC(=O)[C@H](CCCNC(=N)N)NC(=O)[C@H](CC(C)C)NC(=O)[C@H](CCCNC(=N)N)NC(=O)[C@H](CO)NC(=O)[C@H](CC(C)C)NC(=O)[C@H](CCC(=O)O)NC(=O)[C@H](CO)NC(=O)[C@@H](NC(=O)[C@H](Cc1ccccc1)NC(=O)[C@@H](NC(=O)CNC(=O)[C@H](CC(=O)O)NC(=O)[C@H](CO)NC(=O)[C@@H](N)Cc1c[nH]cn1)[C@@H](C)O)[C@@H](C)O)C(=O)N[C@H](C(N)=O)C(C)C [secretin, reference compound]
cAMP production from duodenum, cerebellum and pancreas (SCTR): able to stimulate cAMP production
plasma Vp (vasopressin) concentration (plasma vasopressin): significant increase in plasma Vp
systolic and diastolic blood pressure drop (blood pressure [5]): blood pressure drop was significant
duration of blood pressure reduction (blood pressure [1]; intravenous injection of secretin peptide): approximately 10 min
half-life in circulation [4]: approximately 2 min
